This assay concerns the target T1, Human M4 (Homo sapiens, UniProt P08173).
T1 construct: expressed in transfected cells; host or cells: CHO-K1 (ATCC), stably expressing hM4 and Gqi5
T1 sequence (P08173 1-479): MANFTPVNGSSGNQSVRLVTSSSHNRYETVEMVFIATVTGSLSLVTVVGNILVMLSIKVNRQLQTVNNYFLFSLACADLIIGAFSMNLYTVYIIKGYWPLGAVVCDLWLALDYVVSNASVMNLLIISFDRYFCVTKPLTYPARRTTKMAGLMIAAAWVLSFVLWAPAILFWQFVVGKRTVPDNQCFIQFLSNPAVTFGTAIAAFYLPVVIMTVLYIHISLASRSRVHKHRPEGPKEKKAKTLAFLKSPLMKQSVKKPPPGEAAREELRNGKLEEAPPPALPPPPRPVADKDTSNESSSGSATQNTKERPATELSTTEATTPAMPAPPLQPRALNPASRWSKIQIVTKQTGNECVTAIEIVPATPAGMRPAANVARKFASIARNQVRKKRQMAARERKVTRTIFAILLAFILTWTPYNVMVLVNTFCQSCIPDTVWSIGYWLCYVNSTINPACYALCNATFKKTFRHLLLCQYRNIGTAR
Nature of the assay: mAChR M4 cell-based functional assay (calcium flux, potentiation of EC20 acetylcholine response in CHO-K1 hM4-Gqi5 cells). The settings on record: for Emax at 30 µM: CHO-K1, % ACh maximum at 30 μM, human M4; for EC50: positive allosteric modulator mode, EC20 acetylcholine, CHO-K1 cells with human M4 and Gqi5. Here is the method:
Human M4 cDNA, along with the chimeric G protein Gqi5, were transfected into Chinese hamster ovary (CHO—K1) cells purchased from the American Type Culture Collection using Lipofectamine2000. hM4-Gqi5 cells were grown in Ham's F-12 medium containing 10% heat-inactivated fetal bovine serum (FBS), 20 mM HEPES, 50 μg/mL G418 sulfate, and 500 μg/mL Hygromycin B. rM4-Gqi5 cells were grown in DMEM containing 10% heat-inactivated FBS, 20 mM HEPES, 400 μg/mL G418 sulfate, and 500 μg/mL Hygromycin B.
For high throughput measurement of agonist-evoked increases in intracellular calcium, CHO—K1 cells stably expressing muscarinic receptors were plated in growth medium lacking G418 and hygromycin at 15,000 cells/20 μL/well in Greiner 384-well black-walled, tissue culture (TC)-treated, clear-bottom plates (VWR). Cells were incubated overnight at 37° C. and 5% CO2. The next day, cells were washed using an ELX 405 (BioTek) with assay buffer; the final volume was then aspirated to 20 μL. Next, 20 μL of a 2.3 μM stock of Fluo-4/acetoxymethyl ester (Invitrogen, Carlsbad, Calif.), prepared as a 2.3 mM stock in DMSO and mixed in a 1:1 ratio with 10% (w/v) Pluronic F-127 and diluted in assay buffer, was added to the wells and the cell plates were incubated for 50 min at 37° C. and 5% CO2. Dye was removed by washing with the ELX 405 and the final volume was aspirated to 20 μL. Compound master plates were formatted in an 11 point concentration-response curve (CRC) format (1:3 dilutions) in 100% DMSO with a starting concentration of 10 mM using a BRAVO liquid handler (Agilent). Test compound CRCs were then transferred to daughter plates (240 nL) using the Echo acoustic plate reformatter (Labcyte, Sunnyvale, Calif.) and then diluted into assay buffer (40 μL) to a 2× stock using a Thermo Fisher Combi (Thermo Fisher Scientific, Waltham, Mass.).
Calcium flux was measured using the Functional Drug Screening System (FDSS) 6000 or 7000 (Hamamatsu Corporation, Tokyo, Japan) as an increase in the fluorescent static ratio. Compounds were applied to cells (20 μL, 2×) using the automated system of the FDSS at 2-4 seconds into the protocol and the data were collected at 1 Hz. At 144 seconds, 10 μL of an EC20 concentration of the muscarinic receptor agonist acetylcholine was added (5×), followed by the addition of 12 μL of an EC80 concentration of acetylcholine at the 230 second time point (5×). Agonist activity was analyzed as a concentration-dependent increase in calcium mobilization upon compound addition. Positive allosteric modulator activity was analyzed as a concentration-dependent increase in the EC20 acetylcholine response. With the acetylcholine EC20 set as baseline, the test compound EC50 is determined as the concentration that produces an increase above baseline of 50% of the maximum increase in acetylcholine response elicted by the test compound. Antagonist activity was analyzed as a concentration-dependent decrease in the EC80 acetylcholine response. Concentration-response curves were generated using a four-parameter logistical equation in XLFit curve fitting software (IDBS, Bridgewater, N.J.) for Excel (Microsoft, Redmond, Wash.) or Prism (GraphPad Software, Inc., San Diego, Calif.).
Compounds were synthesized as described above. Activity (EC50 and Emax) was determined in the mAChR M4 cell-based functional assay as described above and the data are shown in Table 3. The compound numbers correspond to the compound numbers used in Examples 2-4 and Tables 1 and 2.
(In general: A change in cytosolic calcium serves as a functional read-out for many receptors and channels.)

For orientation: Emax means the size of the effect at its maximum, as opposed to the concentration needed. For orientation: EC50 means the concentration giving half of the maximal effect. For `Cc1nnc2ccc(C(=O)NC3CN(c4ncccc4Cl)C3)cc2c1C` [Compound 35, N-[1-(3-chloro-2-pyridyl)azetidin-3-yl]-3,4-dimethyl-cinnoline-6-carboxamide], the Emax at 30 µM is 83.7% and the EC50 amounted to 950 nM.

On to `Cc1nnc2ccc(C(=O)NC3CN(c4ncc(C(F)(F)F)cc4Cl)C3)cc2c1C` [Compound 28, N-[1-[3-chloro-5-(trifluoromethyl)-2-pyridyl]azetidin-3-yl]-3,4-dimethyl-cinnoline-6-carboxamide], for which the Emax at 30 µM stood at 75.7% and the EC50 was found to be 2630 nM.

Consider `Cc1nnc2ccc(C(=O)NC3CN(c4ccnc(C(F)(F)F)c4)C3)cc2c1C` [Compound 37, 3,4-dimethyl-N-[1-[2-(trifluoromethyl)-4-pyridyl]azetidin-3-yl]cinnoline-6-carboxamide], for which the Emax at 30 µM stood at 88% and the EC50 was found to be 750 nM.

`Cc1nnc2ccc(C(=O)NC3CN(c4cnc(C5CC5)cn4)C3)cc2c1C` [Compound 22, N-[1-(5-cyclopropylpyrazin-2-yl)azetidin-3-yl]-3,4-dimethyl-cinnoline-6-carboxamide]: the Emax at 30 µM was found to be 79.9% and the EC50 is 2510 nM.

As to `Cc1nnc2ccc(C(=O)NC3CN(c4ccc(Cl)cn4)C3)cc2c1C` [Compound 23, N-[1-(5-chloro-2-pyridyl)azetidin-3-yl]-3,4-dimethyl-cinnoline-6-carboxamide], the Emax at 30 µM came out at 73.4% and the EC50 was 1270 nM.

Regarding `Cc1nnc2ccc(C(=O)NC3CN(c4ccc(OC(F)F)nc4)C3)cc2c1C` [Compound 31, N-[1-[6-(difluoromethoxy)-3-pyridyl]azetidin-3-yl]-3,4-dimethyl-cinnoline-6-carboxamide], the Emax at 30 µM came out at 80.8% and the EC50 was found to be 1460 nM.

In the case of `Cc1cc(C)c2cc(C(=O)NC3CN(c4nccc(Br)c4F)C3)ccc2n1` [Compound 13, N-[1-(4-bromo-3-fluoro-2-pyridyl)azetidin-3-yl]-2,4-dimethyl-quinoline-6-carboxamide], the Emax at 30 µM is 59.5% and the EC50 turned out to be 1600 nM.

With `Cc1cc(C)c2cc(C(=O)NC3CN(c4nccc(Br)c4Cl)C3)ccc2n1` [Compound 11, N-[1-(4-bromo-3-chloro-2-pyridyl)azetidin-3-yl]-2,4-dimethyl-quinoline-6-carboxamide], the maximal response (Emax) at 30 µM was found to be 27.5% and the EC50 worked out at 2200 nM.

As for `Cc1nnc2ccc(C(=O)NC3CN(c4ncc(C#N)cc4Cl)C3)cc2c1C` [Compound 29, N-[1-(3-chloro-5-cyano-2-pyridyl)azetidin-3-yl]-3,4-dimethyl-cinnoline-6-carboxamide], the Emax at 30 µM came out at 71.6% and the EC50 turned out to be 300 nM.

As for `Cc1nnc2ccc(C(=O)NC3CCCC3)cc2c1C` [Compound 41, N-cyclopentyl-3,4-dimethyl-cinnoline-6-carboxamide], the Emax at 30 µM is 53.5% and the EC50 was greater than 10000 nM.

Take `Cc1cc(C)c2cc(C(=O)NC3CN(c4ccnc(F)c4F)C3)ccc2n1` [Compound 12, N-[1-(2,3-difluoro-4-pyridyl)azetidin-3-yl]-2,4-dimethyl-quinoline-6-carboxamide]: the Emax at 30 µM amounted to 65.4% and the EC50 was 170 nM.

With `Cc1nnc2ccc(C(=O)NC3CN(c4cccc(F)n4)C3)cc2c1C` [Compound 33, N-[1-(6-fluoro-2-pyridyl)azetidin-3-yl]-3,4-dimethyl-cinnoline-6-carboxamide], the Emax at 30 µM turned out to be 84.5% and the EC50 stood at 670 nM.

As for `Cc1nnc2ccc(C(=O)NC3CC3)cc2c1C` [Compound 39, N-cyclopropyl-3,4-dimethyl-cinnoline-6-carboxamide], the Emax at 30 µM was 82.6% and the EC50 was greater than 10000 nM.

For the molecule `Cc1nnc2ccc(C(=O)NCc3ccc(C(C)(C)O)cc3)cc2c1C` [Compound 16, N-[[4-(1-hydroxy-1-methyl-ethyl)phenyl]methyl]-3,4-dimethyl-cinnoline-6-carboxamide], the Emax at 30 µM came to 71.2% and the EC50 is greater than 10000 nM.

For the molecule `Cc1nnc2ccc(C(=O)NC3CN(c4ncc(C5CC5)cc4Cl)C3)cc2c1C` [Compound 27, N-[1-(3-chloro-5-cyclopropyl-2-pyridyl)azetidin-3-yl]-3,4-dimethyl-cinnoline-6-carboxamide], the Emax at 30 µM came out at 77.2% and the EC50 was determined as 1390 nM.

Consider `Cc1nnc2ccc(C(=O)NC3CN(c4ncc(F)cc4Cl)C3)cc2c1C` [Compound 26, N-[1-(3-chloro-5-fluoro-2-pyridyl)azetidin-3-yl]-3,4-dimethyl-cinnoline-6-carboxamide], for which the Emax at 30 µM is 79.7% and the EC50 was 460 nM.

As for `Cc1cc(C)c2cc(C(=O)NC3CN(c4ccnc(OC(F)F)c4)C3)ccc2n1` [Compound 10, N-[1-[2-(difluoromethoxy)-4-pyridyl]azetidin-3-yl]-2,4-dimethyl-quinoline-6-carboxamide], the Emax at 30 µM amounted to 55.5% and the EC50 is 1400 nM.

Consider `Cc1nnc2ccc(C(=O)NC3CN(c4ccc(C#N)cn4)C3)cc2c1C` [Compound 25, N-[1-(5-cyano-2-pyridyl)azetidin-3-yl]-3,4-dimethyl-cinnoline-6-carboxamide], for which the Emax at 30 µM was 80.6% and the EC50 came to 1030 nM.

On to `Cc1cc(C)c2cc(C(=O)NCc3cccnc3)ccc2n1` [Compound 7, 2,4-dimethyl-N-(3-pyridylmethyl)quinoline-6-carboxamide], for which the Emax at 30 µM is 32% and the EC50 was greater than 10000 nM.

As for `COc1ccc(CNC(=O)c2ccc3nc(C)cc(C)c3c2)cc1F` [Compound 1, N-[(3-fluoro-4-methoxy-phenyl)methyl]-2,4-dimethyl-quinoline-6-carboxamide], the Emax at 30 µM was 53.1% and the EC50 is greater than 10000 nM.

`COc1cc(N2CC(NC(=O)c3ccc4nnc(C)c(C)c4c3)C2)c(Cl)cn1` [Compound 14, N-[1-(5-chloro-2-methoxy-4-pyridyl)azetidin-3-yl]-3,4-dimethyl-cinnoline-6-carboxamide]: the Emax at 30 µM is 74.1% and the 50% effective concentration (EC50) was 370 nM.

Take `Cc1nnc2ccc(C(=O)NC3CN(c4ccc(F)c(F)c4)C3)cc2c1C` [Compound 18, N-[1-(3,4-difluorophenyl)azetidin-3-yl]-3,4-dimethyl-cinnoline-6-carboxamide]: the Emax at 30 µM was found to be 81.7% and the EC50 was 740 nM.

As for `Cc1cc(C)c2cc(C(=O)NC3CN(c4ncc(OC(C)C)cn4)C3)ccc2n1` [Compound 4, N-[1-(5-isopropoxypyrimidin-2-yl)azetidin-3-yl]-2,4-dimethyl-quinoline-6-carboxamide], the maximal response (Emax) at 30 µM turned out to be 49.3% and the EC50 turned out to be 5300 nM.

As for `Cc1nnc2ccc(C(=O)NC3CN(c4ncc(F)cn4)C3)cc2c1C` [Compound 19, N-[1-(5-fluoropyrimidin-2-yl)azetidin-3-yl]-3,4-dimethyl-cinnoline-6-carboxamide], the Emax at 30 µM stood at 75.4% and the EC50 was greater than 10000 nM.

(Values after patent publication US10934276B2, “Positive allosteric modulators of the muscarinic acetylcholine receptor M4” (Vanderbilt University, priority 2016, dated 2021).)
